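These data come from cells grown in 96-well plates and exposed to compound for 48 hours at five concentrations. At the GI50, growth is halved. TGI: concentration producing complete growth inhibition.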
Key:
Assay in all cases: NCI-60 cell line screen, 48 h
A549 NSCLC = system: A549 NSCLC
ACHN renal = system: ACHN renal
EKVX NSCLC = system: EKVX NSCLC
OVCAR-3 ovarian = system: OVCAR-3 ovarian
SF-539 CNS = system: SF-539 CNS
SK-MEL-5 melanoma = system: SK-MEL-5 melanoma
UACC-257 melanoma = system: UACC-257 melanoma
UACC-62 melanoma = system: UACC-62 melanoma
HL-60(TB) leukemia = system: HL-60(TB) leukemia
DU-145 prostate = system: DU-145 prostate

| SMILES | GI50 (A549 NSCLC) [µM] | TGI (A549 NSCLC) [µM] | GI50 (ACHN renal) [µM] | TGI (ACHN renal) [µM] | GI50 (EKVX NSCLC) [µM] | TGI (EKVX NSCLC) [µM] | GI50 (OVCAR-3 ovarian) [µM] | TGI (OVCAR-3 ovarian) [µM] | GI50 (SF-539 CNS) [µM] | TGI (SF-539 CNS) [µM] | GI50 (SK-MEL-5 melanoma) [µM] | TGI (SK-MEL-5 melanoma) [µM] | GI50 (UACC-257 melanoma) [µM] | TGI (UACC-257 melanoma) [µM] | GI50 (UACC-62 melanoma) [µM] | TGI (UACC-62 melanoma) [µM] | TGI (HL-60(TB) leukemia) [µM] | GI50 (DU-145 prostate) [µM] | TGI (DU-145 prostate) [µM] |
| --- | --- | --- | --- | --- | --- | --- | --- | --- | --- | --- | --- | --- | --- | --- | --- | --- | --- | --- | --- |
| NCCN.NCCN.O=C([O-])CCl.O=C([O-])CCl.[Co+3].[O-][Cl+3]([O-])([O-])[O-] | > 100 | > 100 | > 100 | > 100 | > 100 | > 100 | > 100 | > 100 | > 100 | > 100 | > 100 | > 100 | > 100 | > 100 | > 100 | > 100 |  |  |  |
| O=c1nc(NC(c2ccccc2)(c2ccccc2)c2ccccc2)ccn1CCNCCn1ccc(NC(c2ccccc2)(c2ccccc2)c2ccccc2)nc1=O |  | > 100 |  | > 100 |  | 63.6 |  | 58.3 |  | 29.6 |  | 20.5 |  | 23.3 |  | 24.1 |  |  |  |
| Cc1ccc([N+](=O)[O-])cc1NC(=O)c1cccc([N+](=O)[O-])c1O |  | > 100 |  | 95.9 |  | 72 |  | 64.6 |  | 54.1 |  | 28.7 |  | 39.5 |  | 38.1 | 34.4 |  |  |
| COC(=O)NC12CC3CC(CC(F)(C3)C1)C2 |  | > 100 |  | > 100 |  | > 100 |  | > 100 |  | > 100 |  |  |  | > 100 |  | > 100 | > 100 |  |  |
| O=S(=O)(c1cccc2c(Cl)cccc12)N1CCCNCC1 | 14 | 28.2 | 14.4 | 27.4 | 19.9 | 35.9 | 14.6 | 29.4 | 19.4 | 37.7 | 13.6 | 26.5 | 10.1 | 22.8 | 13.6 | 26.5 |  | 17.1 | 32.1 |
| CN(C)C=[N+]=[N-] |  | > 100 |  | > 100 |  | > 100 |  | > 100 |  | > 100 |  | > 100 |  | > 100 |  | > 100 | > 100 |  |  |
| O=C(c1ccccc1)[C@@H]1C[C@H](Sc2ccccc2)c2cc(Cl)ccc2N1 |  | > 100 |  | > 100 |  | 50.3 |  | 52.2 |  | 33.5 |  | 26.9 |  | 37.4 |  | 51.6 |  |  |  |
| COc1cc2c(cc1OC)[C@H]1C(COC(=O)c3ccccc3)CSC(=Nc3ccccc3)N1CC2 (some centres not stated) |  | > 100 |  | > 100 |  | > 100 |  | > 100 |  | > 100 |  | > 100 |  | > 100 |  | > 100 | > 100 |  |  |
| c1ccc2cc3[s+]snc3cc2c1 |  | > 100 |  | > 100 |  | > 100 |  | > 100 |  | > 100 |  | > 100 |  | > 100 |  | > 100 | > 100 |  |  |
| Cc1[nH]c(=O)n2c(C)nnc2c1C(=O)Nc1cc(Cl)cc(Cl)c1 |  | > 100 |  | > 100 |  | > 100 |  | 40.8 |  | 78.4 |  | 31 |  |  |  | 41 | 47.9 |  |  |
